The results in this text go back to patent US8114864B2, “Macrolide antibiotics and their use for medical purposes” (Helmholtz-Zentrum Fuer Infektionsforschung, priority 2006, dated 2012).

Data set [1] has as its system Micrococcus luteus. The data set can be described thus: Inhibition of oxygen demand/consumption of Micrococcus luteus in liquid culture. It counts as cell-based. Conditions: initial studies.
The subject of data set [2] is NADH oxidation of crude cytoplasmic membrane fractions. Kind of data set: Inhibition of NADH oxidation of crude cytoplasmic membrane fractions. It counts as biochemical. The settings on record: initial studies using Micrococcus luteus.
The test system of data set [3] is Mycobacterium tuberculosis test strain H375RV. Kind of data set: Growth inhibition of Mycobacterium tuberculosis in liquid culture. In kind it is cell-based. The settings on record: for antibiotic activity against Mycobacterium tuberculosis: clinical isolates and reference strains. Here is the method:
Using the standard Mycobacterium tuberculosis test strain H375RV, it could be shown that thuggacin A inhibited growth at or below 8 μg/mL in liquid culture.
For tests of the biological activity, preferably aqueous compositions of the thuggacins according to the present invention were used separately in an aqueous composition comprising 10 mM acetic acid for stabilisation.

A further data set concerns Corynebacterium fascians. Kind of data set: Agar diffusion test. In kind it is cell-based. Conditions: Rhodococcoides fascians, read-out: Diameter of inhibition zone. Here is the method:
(§1) In an agar diffusion test using 10 μg of the compound per disc, the following inhibition was found: […]

For data set [4], the system named is Micrococcus luteus. The data set can be described thus: Agar diffusion test. It counts as cell-based. The settings on record: read-out: Diameter of inhibition zone. Here is the method:
as §1

For the next data set, the system named is Mycobacterium phlei. The data set can be described thus: Agar diffusion test. In kind it is cell-based. Conditions: Mycolicibacterium phlei, read-out: Diameter of inhibition zone. Here is the method:
as §1
For orientation: Agar diffusion results depend on both activity and mobility in agar.

The nature of data set [5]: Stability / rearrangement of thuggacins in protic solvent. It counts as physicochemical. Conditions: for stability in aqueous solution: optionally comprising a C1-C2 alcohol. Here is the method:
Starting from 8 mg/mL thuggacin A, an equilibrium of thuggacin A, thuggacin-B and thuggacin C could be found after approximately 96 hours. In general, the reaction time for reaching the equilibrium can vary over a broad range, e.g. from 1 to 20 days. Re-crystallized thuggacin of high purity is nearly stable, i.e. undergo rearrangement only very slowly. Thuggacin A having a lower purity will undergo rearrangement to thuggacin B and C with increased reaction rates. Similar stabilities have been observed for the rearrangement reaction of thuggacin cmc-A to thuggacin cmc-B and cmc-C.

The subject of data set [6] is Micrococcus luteus, Mycobacterium phlei and M. chitae. The data set can be described thus: MIC in liquid culture.
Data set [7] has as its system mouse fibroblast cells (L929). Kind of data set: Sensitivity of cultivated mouse fibroblast cells.

≈ marks a conversion by molar mass, not a printed value. Read-outs that look alike come from different tables or passages of the source.

Consider `C/C=C(C)/C=C(\C)C(O)C(C)C(O)C(O)C1C/C=C\C=C\C(O)CC(O)C(C)c2nc(cs2)/C=C(\CCCCCC)C(=O)O1` (centres unmarked) [thuggacin A], for which, in the data set with Micrococcus luteus [1], the “inhibition of oxygen consumption” value is “almost completely”. Besides, the “oxidation of NADH and of reduced cytochrome c” value in data set [2] is reported as “reduced”. Further, the “antibiotic activity against Mycobacterium tuberculosis” value in data set [3] is recorded as “antibiotic activity”. For the same compound, in data set [3] (liquid culture, strain H375RV), the concentration inhibiting growth is ≤ 8 µg/mL. Further, the zone of inhibition at 10 µg/disc was determined as 30 mm with Corynebacterium fascians (10 μg of compound per disc, Corynebacterium fascians, figures in parentheses indicate an incomplete inhibition); 29 mm with Micrococcus luteus [4] (10 μg of compound per disc); 20 mm in the data set with Mycobacterium phlei (10 μg of compound per disc, Mycobacterium phlei). Further, the “stability in aqueous solution” value in data set [5] is “not stable”. The “time to equilibrium of thuggacin A, thuggacin B and thuggacin C” value in data set [5] (starting from 8 mg/mL thuggacin A, aqueous composition optionally including methanol (FIG. 1: methanol)) is “approximately 96 hours”. In data set [6], the “relative effectiveness in liquid culture MIC experiments” value (“relative effectiveness” below) is on record as “most effective”. The same compound came in with an IC50 in data set [7] of 4 µg/mL (≈ 6.33 µM).

On to `C/C=C(C)/C=C(\C)CC(C)C(O)C1OC(=O)/C(C)=C/c2csc(n2)C(CO)C(O)CC(O)/C=C/C=C\CC1O` (centres unmarked) [thuggacin cmc-B], for which the “relative effectiveness” value in [6] is on record as “most effective”.

Take `C/C=C(C)/C=C(\C)C(O)C(C)C(O)C(O)C1C/C=C(C)\C=C\C(O)CC(O)C(C)c2nc(cs2)/C=C(\CCCCCC)C(=O)O1` (centres unmarked) [13-methyl thuggacin A]: the “antibiotic activity against Mycobacterium tuberculosis” value in data set [3] is recorded as “antibiotic activity”.

Take `C/C=C(C)/C=C(\C)CC(C)C(O)C(O)C1C/C=C\C=C\C(O)CC(O)C(CO)c2nc(cs2)/C=C(\C)C(=O)O1` (centres unmarked) [thuggacin cmc-A]: the zone of inhibition at 10 µg/disc in the data set on Corynebacterium fascians came out at 47 mm; in the data set on Micrococcus luteus [4] it was 46 mm; in the data set with Mycobacterium phlei it was 24 mm. Further, in data set [6], the “relative effectiveness” value is listed as “most effective”.

As to `C/C=C(C)/C=C(\C)C(O)C(C)C1OC(=O)/C(CCCCCC)=C/c2csc(n2)C(C)C(O)CC(O)/C=C/C=C\CC(O)C1O` (centres unmarked) [thuggacin C], the “antibiotic activity against Mycobacterium tuberculosis” value in [3] is listed as “antibiotic activity”. Besides, the “relative effectiveness” value in [6] is reported as “less effective against certain bacteria”.

Regarding `C/C=C(C)/C=C(\C)C(O)C(C)C(O)C1OC(=O)/C(CCCCCC)=C/c2csc(n2)C(C)C(O)CC(O)/C=C/C=C\CC1O` (centres unmarked) [thuggacin B], the “antibiotic activity against Mycobacterium tuberculosis” value in data set [3] is reported as “antibiotic activity”. Moreover, the “stability in aqueous solution” value in [5] is given as “not stable”. In addition, in data set [6], the “relative effectiveness” value is “most effective”. Half-maximal inhibition in [7] (IC50) was put at 8 µg/mL (≈ 12.7 µM).

As for `C/C=C(C)/C=C(\C)CC(C)C1OC(=O)/C(C)=C/c2csc(n2)C(CO)C(O)CC(O)/C=C/C=C\CC(O)C1O` (centres unmarked) [thuggacin cmc-C], the zone of inhibition at 10 µg/disc in the data set on Corynebacterium fascians is 44 mm; in the data set on Micrococcus luteus [4], 44 mm; in the data set on Mycobacterium phlei, 22 mm.

One may read the zone of inhibition as the extent of the growth-free halo in a diffusion test. As a reminder, the IC50 is the concentration needed to halve the response being measured.
